Experiment [1] addresses Receptor tyrosine-protein kinase erbB-4 (Homo sapiens) (UniProt Q15303). The experiment is described as follows: Inhibition of ERBB4 (unknown origin) assessed as remaining activity at 10 uM by high-throughput assay relative to control.
Experiment [2] deals with MAP kinase-interacting serine/threonine-protein kinase 1 (Homo sapiens) (UniProt Q9BUB5). The experiment is described as follows: Inhibition of MKNK1 (unknown origin) assessed as remaining activity at 10 uM by high-throughput assay relative to control.
The target in experiment [3] is Serine/threonine-protein kinase pim-3 (Homo sapiens) (UniProt Q86V86). The experiment is described as follows: Inhibition of PIM3 (unknown origin) assessed as remaining activity at 10 uM by high-throughput assay relative to control.
Experiment [4] deals with Serine/threonine-protein kinase pim-2 (Homo sapiens) (UniProt Q9P1W9). The experiment is described as follows: Inhibition of PIM2 (unknown origin) assessed as remaining activity at 10 uM by high-throughput assay relative to control.
The target in experiment [5] is NUAK family SNF1-like kinase 2 (Homo sapiens) (UniProt Q9H093). Kind of experiment: Inhibition of SNARK (unknown origin) assessed as remaining activity at 10 uM by high-throughput assay relative to control.
For experiment [6], the target named is Cyclin-dependent kinase 9 (Homo sapiens) (UniProt P50750). The experiment is described as follows: Inhibition of CDK9 (unknown origin) assessed as remaining activity at 10 uM by high-throughput assay relative to control.
Experiment [7] addresses Mitogen-activated protein kinase 3 (Homo sapiens) (UniProt P27361). The experiment is described as follows: Inhibition of ERK1 (unknown origin) assessed as remaining activity at 10 uM by high-throughput assay relative to control.
Experiment [8] concerns the target Mitogen-activated protein kinase 11 (Homo sapiens) (UniProt Q15759). The experiment is described as follows: Inhibition of p38-beta (unknown origin) assessed as remaining activity at 10 uM by high-throughput assay relative to control.
The target in experiment [9] is Tyrosine-protein kinase BTK (Homo sapiens) (UniProt Q06187). Kind of experiment: Inhibition of BTK (unknown origin) assessed as remaining activity at 10 uM by high-throughput assay relative to control.
Experiment [10] deals with Hepatocyte growth factor receptor (Homo sapiens) (UniProt P08581). The experiment is described as follows: Inhibition of MET (unknown origin) assessed as remaining activity at 10 uM by high-throughput assay relative to control.
Experiment [11] deals with Activin receptor type-1B (Homo sapiens) (UniProt P36896). Kind of experiment: Inhibition of ACVR1B (unknown origin) assessed as remaining activity at 10 uM by high-throughput assay relative to control.
Experiment [12] has as its target Epidermal growth factor receptor (Homo sapiens) (UniProt P00533). Kind of experiment: Inhibition of EGFR (unknown origin) assessed as remaining activity at 10 uM by high-throughput assay relative to control.
In experiment [13] the target is 3-phosphoinositide-dependent protein kinase 1 (Homo sapiens) (UniProt O15530). The experiment is described as follows: Inhibition of PDPK1 (unknown origin) assessed as remaining activity at 10 uM by high-throughput assay relative to control.
Experiment [14] concerns the target Serine/threonine-protein kinase PLK1 (Homo sapiens) (UniProt P53350). Kind of experiment: Inhibition of PLK1 (unknown origin) assessed as remaining activity at 10 uM by high-throughput assay relative to control.
Experiment [15] concerns the target cAMP-dependent protein kinase catalytic subunit alpha (Homo sapiens) (UniProt P17612). Kind of experiment: Inhibition of PKAC-alpha (unknown origin) assessed as remaining activity at 10 uM by high-throughput assay relative to control.
Experiment [16] has as its target Mitogen-activated protein kinase 10 (Homo sapiens) (UniProt P53779). Kind of experiment: Inhibition of JNK3 (unknown origin) assessed as remaining activity at 10 uM by high-throughput assay relative to control.
Experiment [17] concerns the target Testis-specific serine/threonine-protein kinase 1 (Homo sapiens) (UniProt Q9BXA7). The experiment is described as follows: Inhibition of TSSK1B (unknown origin) assessed as remaining activity at 10 uM by high-throughput assay relative to control.
The target in experiment [18] is Mitogen-activated protein kinase kinase kinase 4 (Homo sapiens) (UniProt Q9Y6R4). Kind of experiment: Inhibition of MAP3K4 (unknown origin) assessed as remaining activity at 10 uM by high-throughput assay relative to control.
Experiment [19] has as its target Tyrosine-protein kinase ABL1 (Homo sapiens) (UniProt P00519). Kind of experiment: Inhibition of ABL1 phosphorylation (unknown origin) assessed as remaining activity at 10 uM by high-throughput assay relative to control.
For experiment [20], the target named is Receptor tyrosine-protein kinase erbB-2 (Homo sapiens) (UniProt P04626). Kind of experiment: Inhibition of ERBB2 (unknown origin) assessed as remaining activity at 10 uM by high-throughput assay relative to control.
In experiment [21] the target is Inhibitor of nuclear factor kappa-B kinase subunit beta (Homo sapiens) (UniProt O14920). The experiment is described as follows: Inhibition of IKK-beta (unknown origin) assessed as remaining activity at 10 uM by high-throughput assay relative to control.
The target in experiment [22] is Cyclin-dependent kinase 2 (Homo sapiens) (UniProt P24941). The experiment is described as follows: Inhibition of CDK2 (unknown origin) assessed as remaining activity at 10 uM by high-throughput assay relative to control.
Experiment [23] has as its target Phosphatidylinositol 4-phosphate 3-kinase C2 domain-containing subunit beta (Homo sapiens) (UniProt O00750). Kind of experiment: Inhibition of PIK3C2B (unknown origin) assessed as remaining activity at 10 uM by high-throughput assay relative to control.
Experiment [24] concerns the target Serine/threonine-protein kinase PAK 1 (Homo sapiens) (UniProt Q13153). The experiment is described as follows: Inhibition of PAK1 (unknown origin) assessed as remaining activity at 10 uM by high-throughput assay relative to control.

Serine/threonine-protein kinase PAK 1 (Homo sapiens), sequence (Q13153 whole entry): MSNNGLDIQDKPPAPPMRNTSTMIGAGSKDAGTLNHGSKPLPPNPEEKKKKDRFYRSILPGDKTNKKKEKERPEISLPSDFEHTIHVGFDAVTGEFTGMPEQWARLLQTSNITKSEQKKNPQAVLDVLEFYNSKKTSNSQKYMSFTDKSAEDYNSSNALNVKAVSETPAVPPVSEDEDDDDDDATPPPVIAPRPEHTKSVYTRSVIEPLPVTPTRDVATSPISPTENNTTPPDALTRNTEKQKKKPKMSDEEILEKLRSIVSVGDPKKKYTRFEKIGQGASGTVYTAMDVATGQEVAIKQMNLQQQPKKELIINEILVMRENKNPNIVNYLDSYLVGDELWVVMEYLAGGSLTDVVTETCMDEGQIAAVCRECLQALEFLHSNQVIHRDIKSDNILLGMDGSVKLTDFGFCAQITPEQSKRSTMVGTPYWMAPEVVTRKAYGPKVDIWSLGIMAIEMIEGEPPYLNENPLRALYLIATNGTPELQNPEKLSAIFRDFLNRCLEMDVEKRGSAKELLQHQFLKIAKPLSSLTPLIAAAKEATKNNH
Receptor tyrosine-protein kinase erbB-4 (Homo sapiens), sequence (Q15303 whole entry): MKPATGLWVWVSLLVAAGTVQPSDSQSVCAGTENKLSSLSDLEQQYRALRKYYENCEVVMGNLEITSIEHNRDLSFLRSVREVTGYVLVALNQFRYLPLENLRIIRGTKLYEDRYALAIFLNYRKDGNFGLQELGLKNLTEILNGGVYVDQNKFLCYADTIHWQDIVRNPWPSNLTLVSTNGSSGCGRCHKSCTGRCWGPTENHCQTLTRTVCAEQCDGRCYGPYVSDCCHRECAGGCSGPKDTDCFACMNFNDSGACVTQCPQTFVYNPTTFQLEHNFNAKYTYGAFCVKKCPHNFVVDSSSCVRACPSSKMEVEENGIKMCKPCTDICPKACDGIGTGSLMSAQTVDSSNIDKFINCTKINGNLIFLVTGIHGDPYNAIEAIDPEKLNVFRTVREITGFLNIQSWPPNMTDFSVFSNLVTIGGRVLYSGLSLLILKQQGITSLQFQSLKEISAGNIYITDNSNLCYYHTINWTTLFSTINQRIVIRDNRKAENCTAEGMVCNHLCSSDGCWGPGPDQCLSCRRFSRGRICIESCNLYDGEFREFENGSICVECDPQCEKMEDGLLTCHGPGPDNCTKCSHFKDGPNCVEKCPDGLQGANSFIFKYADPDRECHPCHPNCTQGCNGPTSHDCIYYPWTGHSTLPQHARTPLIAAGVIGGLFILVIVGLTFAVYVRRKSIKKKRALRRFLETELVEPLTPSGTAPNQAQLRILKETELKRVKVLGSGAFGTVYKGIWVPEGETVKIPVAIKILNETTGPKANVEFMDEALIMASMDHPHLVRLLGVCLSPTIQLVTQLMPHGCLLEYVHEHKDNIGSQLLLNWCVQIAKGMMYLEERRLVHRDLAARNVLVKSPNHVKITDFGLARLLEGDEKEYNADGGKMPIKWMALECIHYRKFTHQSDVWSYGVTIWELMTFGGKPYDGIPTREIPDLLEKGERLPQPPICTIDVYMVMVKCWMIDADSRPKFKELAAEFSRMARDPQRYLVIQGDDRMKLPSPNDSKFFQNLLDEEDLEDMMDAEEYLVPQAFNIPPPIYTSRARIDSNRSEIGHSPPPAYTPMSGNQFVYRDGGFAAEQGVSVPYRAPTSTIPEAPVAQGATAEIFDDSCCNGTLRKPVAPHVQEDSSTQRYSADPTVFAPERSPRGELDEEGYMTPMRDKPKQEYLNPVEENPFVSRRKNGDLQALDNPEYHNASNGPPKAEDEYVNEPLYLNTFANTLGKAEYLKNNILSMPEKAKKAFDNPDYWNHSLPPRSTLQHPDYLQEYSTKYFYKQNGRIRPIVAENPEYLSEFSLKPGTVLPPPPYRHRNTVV
Mitogen-activated protein kinase 3 (Homo sapiens), sequence (P27361 whole entry): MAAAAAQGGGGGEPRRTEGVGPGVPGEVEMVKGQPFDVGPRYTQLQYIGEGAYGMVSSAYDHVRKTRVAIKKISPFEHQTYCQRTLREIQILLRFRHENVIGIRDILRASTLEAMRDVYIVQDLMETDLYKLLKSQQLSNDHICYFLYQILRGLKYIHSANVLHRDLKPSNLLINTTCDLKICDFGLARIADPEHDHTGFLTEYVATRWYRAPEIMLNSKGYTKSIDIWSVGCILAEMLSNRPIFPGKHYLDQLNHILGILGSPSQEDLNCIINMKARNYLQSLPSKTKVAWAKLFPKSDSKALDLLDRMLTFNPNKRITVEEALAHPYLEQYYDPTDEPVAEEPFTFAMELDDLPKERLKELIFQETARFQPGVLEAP
3-phosphoinositide-dependent protein kinase 1 (Homo sapiens), sequence (O15530 whole entry): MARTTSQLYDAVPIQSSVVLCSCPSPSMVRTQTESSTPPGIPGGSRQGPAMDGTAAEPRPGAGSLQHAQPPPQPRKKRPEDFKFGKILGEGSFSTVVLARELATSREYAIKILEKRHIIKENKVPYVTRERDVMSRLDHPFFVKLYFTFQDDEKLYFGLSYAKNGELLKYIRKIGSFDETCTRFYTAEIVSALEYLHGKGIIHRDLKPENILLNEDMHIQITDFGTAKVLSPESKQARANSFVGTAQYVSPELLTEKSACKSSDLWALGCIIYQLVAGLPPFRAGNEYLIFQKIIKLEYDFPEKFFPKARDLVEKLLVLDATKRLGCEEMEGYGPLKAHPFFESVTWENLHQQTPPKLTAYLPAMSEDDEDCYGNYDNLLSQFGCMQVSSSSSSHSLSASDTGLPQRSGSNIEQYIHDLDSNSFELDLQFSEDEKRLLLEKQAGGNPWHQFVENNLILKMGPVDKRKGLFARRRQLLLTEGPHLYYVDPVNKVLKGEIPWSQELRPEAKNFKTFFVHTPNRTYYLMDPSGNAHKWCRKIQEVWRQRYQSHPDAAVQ
Tyrosine-protein kinase ABL1 (Homo sapiens), sequence (P00519 whole entry): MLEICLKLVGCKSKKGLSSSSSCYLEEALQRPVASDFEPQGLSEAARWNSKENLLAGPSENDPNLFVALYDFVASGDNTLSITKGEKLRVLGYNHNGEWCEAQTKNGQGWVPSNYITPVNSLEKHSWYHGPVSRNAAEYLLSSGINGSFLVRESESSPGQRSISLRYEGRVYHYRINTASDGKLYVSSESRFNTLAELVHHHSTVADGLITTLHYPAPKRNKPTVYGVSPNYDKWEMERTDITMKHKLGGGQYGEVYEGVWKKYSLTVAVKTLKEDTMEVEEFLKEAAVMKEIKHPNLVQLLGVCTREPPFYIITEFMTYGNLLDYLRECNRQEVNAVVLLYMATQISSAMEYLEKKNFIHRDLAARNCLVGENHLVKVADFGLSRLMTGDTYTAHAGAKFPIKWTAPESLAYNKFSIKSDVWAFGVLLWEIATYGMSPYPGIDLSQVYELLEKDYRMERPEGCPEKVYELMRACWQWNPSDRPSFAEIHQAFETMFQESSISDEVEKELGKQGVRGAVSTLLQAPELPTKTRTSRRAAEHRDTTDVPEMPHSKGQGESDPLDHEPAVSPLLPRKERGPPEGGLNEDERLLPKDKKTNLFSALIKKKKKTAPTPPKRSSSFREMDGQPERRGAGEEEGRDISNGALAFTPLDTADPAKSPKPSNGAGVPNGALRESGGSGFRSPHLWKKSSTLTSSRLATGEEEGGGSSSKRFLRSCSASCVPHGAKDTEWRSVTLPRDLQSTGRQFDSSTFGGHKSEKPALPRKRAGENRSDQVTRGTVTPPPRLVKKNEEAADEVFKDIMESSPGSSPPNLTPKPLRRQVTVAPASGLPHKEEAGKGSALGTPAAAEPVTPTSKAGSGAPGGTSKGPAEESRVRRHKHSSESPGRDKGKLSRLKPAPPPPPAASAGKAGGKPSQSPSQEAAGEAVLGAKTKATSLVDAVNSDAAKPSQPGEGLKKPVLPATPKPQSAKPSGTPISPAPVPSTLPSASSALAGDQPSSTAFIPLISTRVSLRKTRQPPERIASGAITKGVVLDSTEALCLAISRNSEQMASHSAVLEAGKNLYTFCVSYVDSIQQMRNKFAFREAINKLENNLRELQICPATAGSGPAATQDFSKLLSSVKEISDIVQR
Cyclin-dependent kinase 9 (Homo sapiens), sequence (P50750 whole entry): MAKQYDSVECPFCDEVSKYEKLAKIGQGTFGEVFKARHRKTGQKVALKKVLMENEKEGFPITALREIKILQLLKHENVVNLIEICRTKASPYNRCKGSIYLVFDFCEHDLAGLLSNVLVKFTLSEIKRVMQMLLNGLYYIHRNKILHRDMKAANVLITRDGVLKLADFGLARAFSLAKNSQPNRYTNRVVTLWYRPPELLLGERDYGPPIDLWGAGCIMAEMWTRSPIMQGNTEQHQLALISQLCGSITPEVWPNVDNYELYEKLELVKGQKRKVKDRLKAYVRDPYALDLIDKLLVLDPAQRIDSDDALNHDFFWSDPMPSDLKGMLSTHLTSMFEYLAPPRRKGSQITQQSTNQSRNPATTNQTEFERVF
Testis-specific serine/threonine-protein kinase 1 (Homo sapiens), sequence (Q9BXA7 whole entry): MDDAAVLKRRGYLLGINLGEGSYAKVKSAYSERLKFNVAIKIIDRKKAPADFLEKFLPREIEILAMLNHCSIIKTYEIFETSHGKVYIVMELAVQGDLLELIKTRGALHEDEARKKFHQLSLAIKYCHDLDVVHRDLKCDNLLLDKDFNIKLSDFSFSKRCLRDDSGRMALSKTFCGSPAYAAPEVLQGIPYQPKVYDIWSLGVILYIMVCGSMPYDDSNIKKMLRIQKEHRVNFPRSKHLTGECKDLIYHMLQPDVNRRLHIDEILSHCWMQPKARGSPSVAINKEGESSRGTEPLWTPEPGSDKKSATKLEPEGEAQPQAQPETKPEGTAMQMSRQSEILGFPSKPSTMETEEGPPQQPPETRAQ

Consider `O=C1c2ccccc2-c2c1oc1ccccc1c2=O`, for which the Activity came to 100% in experiment [1]; 99% in experiment [2]; 94% in experiment [3]; 82% in [4]; 70% in experiment [5]; 71% in experiment [6]. The Activity was 87% in experiment [7]; 79% in experiment [8]; 76% in experiment [9]; 64% in experiment [10]; 82% in [11]; 93% in experiment [12]. The Activity in [13] stood at 99%; in experiment [14] it was 38%; in [15] it was 92%; in [16], 33%; in experiment [17] it was 71%; in experiment [18] it was 91%. Moreover, the Activity was found to be 98% in experiment [19]; 92% in experiment [20]; 73% in experiment [21]; 82% in [22]; 99% in experiment [23]; 93% in [24].

For the origin of these results see ChEMBL document CHEMBL3627674, “Discovery of wrightiadione as a novel template for the TrkA kinase inhibitors” (Bioorg Med Chem Lett, 2015).
